Data on 3 molecules can be found in ChEMBL document CHEMBL4002567, “Rational design and synthesis of 1,5-disubstituted tetrazoles as potent inhibitors of the MDM2-p53 interaction” (Eur J Med Chem, 2017).

One assay has as its target T1, Protein Mdm4 (Homo sapiens, UniProt O15151).
T1 sequence (O15151 whole entry): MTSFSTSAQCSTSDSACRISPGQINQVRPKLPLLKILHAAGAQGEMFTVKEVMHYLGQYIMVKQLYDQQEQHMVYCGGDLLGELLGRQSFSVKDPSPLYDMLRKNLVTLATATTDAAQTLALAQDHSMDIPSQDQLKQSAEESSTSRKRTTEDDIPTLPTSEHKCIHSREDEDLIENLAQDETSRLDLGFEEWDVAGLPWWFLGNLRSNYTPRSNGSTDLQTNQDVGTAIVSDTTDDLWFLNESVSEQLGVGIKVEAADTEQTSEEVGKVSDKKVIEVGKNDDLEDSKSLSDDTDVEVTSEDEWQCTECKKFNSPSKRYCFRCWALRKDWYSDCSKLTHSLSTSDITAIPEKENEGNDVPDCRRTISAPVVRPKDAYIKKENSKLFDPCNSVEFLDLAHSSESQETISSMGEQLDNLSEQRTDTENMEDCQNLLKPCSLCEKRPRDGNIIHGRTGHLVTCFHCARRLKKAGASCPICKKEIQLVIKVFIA

In assay [1] the target is E3 ubiquitin-protein ligase Mdm2 (Homo sapiens, UniProt Q00987).
Sequence of E3 ubiquitin-protein ligase Mdm2 (Q00987 whole entry): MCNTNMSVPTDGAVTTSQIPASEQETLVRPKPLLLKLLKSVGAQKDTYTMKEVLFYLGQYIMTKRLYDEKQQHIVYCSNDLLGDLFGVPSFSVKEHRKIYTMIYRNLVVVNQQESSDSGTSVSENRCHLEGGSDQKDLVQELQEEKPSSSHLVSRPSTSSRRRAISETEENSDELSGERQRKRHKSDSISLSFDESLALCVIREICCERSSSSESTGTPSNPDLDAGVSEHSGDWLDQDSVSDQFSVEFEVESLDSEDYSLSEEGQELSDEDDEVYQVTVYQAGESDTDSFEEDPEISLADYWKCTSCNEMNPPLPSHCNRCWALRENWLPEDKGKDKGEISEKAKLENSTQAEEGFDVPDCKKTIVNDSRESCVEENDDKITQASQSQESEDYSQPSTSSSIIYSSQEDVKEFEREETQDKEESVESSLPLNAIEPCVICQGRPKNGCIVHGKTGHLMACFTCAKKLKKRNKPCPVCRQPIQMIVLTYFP

Turning to `CCOC(=O)c1[nH]c2cc(Cl)ccc2c1C(NC1CCCC1)c1nnnn1-c1cccc(Oc2ccccc2)c1` (stereo unspecified), the Ki entry (on Protein Mdm4; in assay [1]) was “Not Active” throughout.

Regarding `CCOC(=O)c1[nH]c2cc(Cl)ccc2c1C(NC1CCCCCC1)c1nnnn1-c1cccc(Oc2ccccc2)c1` (stereo unspecified), the Ki entry (at Protein Mdm4; in assay [1]) was “Not Active” in each case.

Turning to `CCOC(=O)c1[nH]c2cc(Cl)ccc2c1C(NC1CCCCC1)c1nnnn1-c1cccc(Oc2ccccc2)c1` (stereo unspecified), the Ki result (at Protein Mdm4; in assay [1]) was “Not Active” throughout.
